Columns and labels:
HT22 cells = experiment: in vitro ischemia assay (HT22 cell IAA assay); format: cell-based, mouse; conditions: for EC50 in vitro ischemia: HT22 cells, 20 μM IAA 2 hr, viability by MTT after 24 hr, 'no' = no protection; for improvement of neuroprotective activity/potency over Fisetin: relative to Fisetin, in vitro ischemia
Experimental: For these studies, cultured HT22 mouse hippocampal cells were used as an in vitro stroke assay. HT22 cells were treated with iodoacetic acid (IAA), an irreversible inhibitor of glyceraldehyde 3-phosphate dehydrogenase (G3PDH) for 2 hr alone or in the presence of varying concentrations of Fisetin. G3PDH is an enzyme of the glycolysis pathway, which catalyzes the synthesis of 1,3-bisphosphoglycerate, a “high energy” intermediate used for the synthesis of ATP. Cell survival was measured using a standard colorimetric MTT (3-(4,5-dimethylthiazol-2-yl)-2,5-diphenyltetrazolium bromide) assay for cell survival MTT is a pale yellow substrate that is cleaved by living cells to yield a dark blue formazan product.
Cytotoxicity assay. Cell viability was determined by a modified version of 3-(4,5-dimethylthiazol-2-yl)-2,5-diphenyl tetrazolium bromide (MTT) assay based on the standard procedure (Maher, et al., Brain Research. (2007), supra). Cells were seeded onto 96-well microtiter plates at a density of 5×10^3 cells per well. For the in vitro ischemia assay, the next day, the medium was replaced with DMEM supplemented with 7.5% DFCS and the cells were treated with 20 μM iodoacetic acid (IAA) alone or in the presence of the different derivatives. After 2 hr the medium in each well was aspirated and replaced with fresh medium without IAA but containing the derivatives. 20 hr later, the medium in each well was aspirated and replaced with fresh medium containing 2.5 μg/ml MTT. After 4 hr of incubation at 37° C., the cells were solubilized with 100 μl of a solution containing 50% dimethylformamide and 20% SDS (pH 4.7). The absorbance at 570 nm was measured on the following day with a microplate reader (Molecular Devices). Results were confirmed by visual inspection of the wells. Controls included compound alone to test for toxicity and compound with no cells to test for interference with the assay chemistry.
For a primary screen, an in vitro ischemia model in combination with the HT22 nerve cell line (Maher, et al., Brain Research. (2007) 1173, 117-125) was chosen. […] To induce ischemia in the HT22 cells we used iodoacetic acid (IAA), a well-known, irreversible inhibitor of the glycolytic enzyme glyceraldehyde 3-phosphate dehydrogenase (G3PDH) (Winkler, et al., Exp. Eye Res. (2003) 76, 715-723). IAA has been used in a number of other studies to induce ischemia in nerve cells (Reshef, et al., Neurosci. Lett. (1997) 238, 37-40; Sperling, et al., Neursci. Lett. (2003) 351, 137-140; Rego, et al., Neurochem. Res. (1999) 24, 351-358; Sigalov, et al,. J. Mol. Neurosci. (2000) 15, 147-154; and Reiner, et al., Neurosci. Lett. (1990) 119, 175-178), including several recent screens for neuroprotective molecules (Biraboneye, et al., J. Med. Chem. (2009) 52 (14), 4358-4369; Biraboneye, et al., Chem. Med. Chem. (2010) 5 (1), 79-85). The changes following IAA treatment of neural cells are very similar to those seen in animal models of ischemic stroke (Lipton, et al., Physiol. Rev. (1999) 79, 1431-1568) and include alterations in membrane potential (Reiner, et al., Neurosci. Lett. (1990) 119, 175-178), breakdown of phospholipids (Taylor, et al., J. Pharmacol. Exp. Ther. (1996) 276, 1224-1231), loss of ATP (Winkler, et al., Exp. Eye Res. (2003) 76, 715-723; Sperling, et al., Neursci. Lett. (2003) 351, 137-140) and an increase in reactive oxygen species (ROS) (Taylor, et al., J. Pharmacol. Exp. Ther. (1996), supra; and Sperling, et al., Neursci. Lett. (2003) 351, 137-140).
The roles of the four different hydroxyl groups in the activity of Fisetin were studied. […] Cell viability was determined after 24 hr by the MTT assay. The ability to maintain GSH (GSH) was determined by treating HT22 cells with different doses of each derivative (1-10 μM) in the presence of 5 mM glutamate. After 24 hr cell extracts were prepared and analyzed for total GSH. Fisetin (10 μM) was used as a positive control. […]

N9 microglial cells = experiment: anti-inflammatory assay, LPS-induced microglial activation (NO release); format: cell-based, mouse; conditions: bacterial lipopolysaccharide, derivative 1-10 μM, 24 hr
Experimental: Anti-inflammatory assay. Mouse N9 microglial cells plated in DME with 7.5% DFCS were treated with 10 μg/ml bacterial lipopolysaccharide (Sigma) alone or in the presence of the Fisetin derivatives (1-10 μM) or Fisetin (10 μM) as a positive control. After 24 hr the medium was removed, spun briefly to remove floating cells and 100 μl assayed for NO using 100 μl of the Griess Reagent (Sigma) in a 96 well plate. After incubation for 10 min at room temperature the absorbance at 550 nm was read on a microplate reader.
Three secondary screens allowed assessment of three key activities of Fisetin that are highly relevant to stroke, as well as other neurological disorders: maintenance of glutathione (GSH), the major endogenous cellular antioxidant, inhibition of LPS-induced microglial activation, an indicator of anti-inflammatory activity and PC12 cell differentiation, a measure of neurotrophic activity. All of these activities are relevant to the nerve cell loss seen in stroke (Gelderblom, et al., Stroke. 2009, 40 (5), 1849-1857; Pandya, et al., Cent. Nerv. Syst. Agents. Med. Chem. (2011) Apr. 27; Lewerenz, et al., J. Neurochem. (2010) 113 (2), 502-504). […] To assess GSH maintenance, total intracellular GSH levels after a 24 hr treatment with the compound both in the absence and presence of glutamate, an inducer of GSH loss and oxidative stress (Tan, et al., Curr. Top. Med. Chem. (2001) 1, 497-506; Maher, et al., Free Radical Research. (2006) 40 (10), 1105-1111) was measured Inhibition of LPS-induced microglial activation was determined by treating N9 mouse microglial cells with LPS alone and in the presence of the compounds and assaying NO release into the medium 24 hr later (Zheng, et al., Int. Immunopharmacol. (2008) 8, (3), 484-494). PC12 cell differentiation was determined by treating PC12 cells with the compounds and looking at neurite outgrowth after 24 hr. In all cases, Fisetin was used as a positive control (Sagara, et al., J. Neurochem. (2004) 90, 1144-1155).
The roles of the four different hydroxyl groups in the activity of Fisetin were studied. […] Cell viability was determined after 24 hr by the MTT assay. The ability to maintain GSH (GSH) was determined by treating HT22 cells with different doses of each derivative (1-10 μM) in the presence of 5 mM glutamate. After 24 hr cell extracts were prepared and analyzed for total GSH. Fisetin (10 μM) was used as a positive control. The ability to induce PC12 cell differentiation (PC12 diff'n) was determined by treating PC12 cells in N2 medium with different doses of each derivative (1-10 μM) for 24 hr. Differentiation was assessed by visual inspection with Fisetin (10 μM) as a positive control. Anti-inflammatory activity (microglia) was assessed in N9 microglial cells treated with bacterial lipopolysaccharide alone or in the presence different doses of each derivative (1-10 μM) for 24 hr. Fisetin was used as a positive control. TEAC values, a measure of direct antioxidant activity, were determined using the ABTS+ decolorization assay.

| Structure (SMILES) | EC50 in vitro ischemia (HT22 cells) | microglia (anti-inflammatory activity) (N9 microglial cells) [%] | also measured |
| --- | --- | --- | --- |
| CCOc1ccc(-c2cc(OC)c3ccccc3n2)cc1OCC [CMS-004, 4-methoxy-2-(3,4-diethoxyphenyl)quinoline] | no | 76 |  |
| O=c1cc(-c2ccc(O)c(O)c2)oc2ccccc12 [PM-001] |  |  | improvement of neuroprotective activity/potency over Fisetin (HT22 cells): 6 fold |
| O=c1c(O)c(-c2ccc(O)c(O)c2)oc2c1ccc1ccccc12 [CMS-040, 2-(3,4-dihydroxyphenyl)-3-hydroxy-4H-benzo[h]chromen-4-one] |  | 91 | further enhancement of neuroprotective activity (HT22 cells; benzene ring added to A ring, relative to CMS-04P): ~5.5 fold |
| CCOc1ccc(-c2cc(=O)c3cc(C)c(C)cc3o2)cc1OCC [CMS-018, 2-(3,4-diethoxyphenyl)-6,7-dimethyl-4H-chromen-4-one] | no | 2 |  |
| O=c1cc(-c2ccc(O)c(O)c2)oc2c1ccc1ccccc12 [CMS-02P, reference compound] |  | 55 | improvement of neuroprotective activity/potency over Fisetin (HT22 cells): ~40 fold |
| Cc1ccc2oc(-c3ccc(O)c(O)c3)c(O)c(=O)c2c1 [PM-010, 2-(3,4-dihydroxyphenyl)-3-hydroxy-6-methyl-4H-chromen-4-one] |  |  | improvement of neuroprotective activity/potency over Fisetin (HT22 cells): 10-100 fold |
| CCOc1ccc(/C=C/C(=O)c2cc(C)c(C)cc2O)cc1OCC [CMS-013, (E)-3-(3,4-diethoxyphenyl)-1-(2-hydroxy-4,5-dimethylphenyl)prop-2-en-1-one] | no | 56 |  |
| COc1cc(-c2ccc(O)cc2)nc2ccccc12 [CMS-022, 4-methoxy-2-(4-hydroxyphenyl)quinoline] | no | 4 |  |
| CCOc1ccc(-c2cc(=O)c3ccc4ccccc4c3o2)cc1OCC [CMS-038, 2-(3,4-diethoxyphenyl)-4H-benzo[h]chromen-4-one] | no | 2 |  |
| COc1cc(-c2ccc(N3CCCC3)cc2)nc2ccccc12 [CMS-110, 4-methoxy-2-(4-(pyrrolidin-1-yl)phenyl)quinoline] | no | 67 |  |
| O=c1cc(-c2ccc(O)c(O)c2)oc2ccc3ccccc3c12 [PM-003] |  |  | improvement of neuroprotective activity/potency over Fisetin (HT22 cells): ~40 fold |
| COc1cc(-c2ccc([N+](=O)[O-])c(O)c2)nc2ccccc12 [CMS-111, 4-methoxy-2-(3-hydroxy-4-nitrophenyl)quinoline] | no | 25 |  |
| Cc1cc(O)c(C(=O)/C=C/c2ccc(O)cc2O)cc1C [CMS-087, (E)-3-(2,4-dihydroxyphenyl)-1-(2-hydroxy-4,5-dimethylphenyl)prop-2-en-1-one] |  | 53 |  |
| CC(C)Oc1cc(-c2ccc(N3CCCC3)cc2)nc2ccccc12 [CMS-113, 4-isopropoxy-2-(4-(pyrrolidin-1-yl)phenyl)quinoline] |  | 67 |  |
| COc1ccc(/C=C/C(=O)c2cc(C)c(C)cc2O)cc1O [CMS-088, (E)-1-(2-hydroxy-4,5-dimethylphenyl)-3-(3-hydroxy-4-methoxyphenyl)prop-2-en-1-one] |  | 56 |  |
| CCOc1ccc(/C=C/C(=O)c2ccc3ccccc3c2O)cc1OCC [CMS-032, (E)-3-(3,4-diethoxyphenyl)-1-(1-hydroxynaphthalen-2-yl)prop-2-en-1-one] | no | 5 |  |
| COc1cc(-c2oc3cc(C)c(C)cc3c(=O)c2O)ccc1OCc1ccccc1 [CMS-059, 2-(4-(benzyloxy)-3-methoxyphenyl)-3-hydroxy-6,7-dimethyl-4H-chromen-4-one] |  | 14 |  |
| Cc1cc2oc(-c3ccc(N(C)C)cc3)cc(=O)c2cc1C [CMS-119, 2-(4-(dimethylamino)phenyl)-6,7-dimethyl-4H-chromen-4-one] |  | 8 |  |
| COc1cc(/C=C/C(=O)c2ccc3ccccc3c2O)ccc1OCc1ccccc1 [CMS-063, (E)-3-(4-(benzyloxy)-3-methoxyphenyl)-1-(1-hydroxynaphthalen-2-yl)prop-2-en-1-one] |  | 9 |  |
| COc1cc(-c2oc3c(ccc4ccccc43)c(=O)c2O)ccc1O [CMS-070, 3-hydroxy-2-(4-hydroxy-3-methoxyphenyl)-4H-benzo[h]chromen-4-one] |  | 78 |  |
| Cc1cc2oc(-c3ccc(O)c(O)c3)cc(=O)c2cc1C [CMS-028, 2-(3,4-dihydroxyphenyl)-6,7-dimethyl-4H-chromen-4-one] |  | 93 | enhancement of neuroprotective activity relative to CMS-027 (HT22 cells; relative to CMS-027): 2 fold |
| CCOc1ccc(-c2oc3cc(C)c(C)cc3c(=O)c2O)cc1OCC [CMS-025, 2-(3,4-diethoxyphenyl)-3-hydroxy-6,7-dimethyl-4H-chromen-4-one] |  | 11 |  |
| COc1ccc(-c2cc(OC)c3ccccc3n2)cc1O [CMS-001, 4-methoxy-2-(3-hydroxy,4-methoxyphenyl)quinoline] | no | 69 |  |
